Data: publication PMC4306533, “Distinct Features of Cap Binding by eIF4E1b Proteins” (Journal of Molecular Biology, 2015)

Columns and labels:
XeIF4E1bΔN27 = experiment: time-synchronized fluorescence titration of cap analogue binding; design: species or system Xenopus laevis; conditions: for Kas + glycerol XeIF4E1bΔN27: equilibrium association constant
From the text: (§1) The time-synchronized fluorescence titration method, widely used to determine the affinity constants of cap–eIF4E complexes [[20,22–26]], measures the quenching of the intrinsic fluorescence of tryptophan residues due to cap binding (Fig. S2). Knowledge of the equilibrium association constant Kas enables the calculation of the free-energy changes involved in the interaction between eIF4E and ligand, according to the standard equation ΔG° = − RTlnKas.
(§2) For human eIF4E1a and eIF4E1b and also for Xenopus eIF4E1a and its mutated forms, measurements were carried out using 0.1 μM protein in 50 mM Hepes/KOH (pH 7.2), 134.5 mM KCl, 0.5 mM EDTA and 1 mM DTT. For Xenopus eIF4E1b(ΔN27), the concentration was 0.2 μM and glycerol was added to the buffer to 10% (v/v) final concentration. […] Fluorescence of measured samples was excited at 280 nm (2.5 nm bandwidth) and detected at 337 nm or 330 nm (4 nm bandwidth), thus reducing the signal originated from the free cap analogues. Measurements were carried out on a LS-55 spectrofluorometer (Perkin Elmer Co.) using freshly prepared proteins, and the fluorescence intensities were corrected for sample dilution and the inner filter effect.
(§3) Equilibrium association constants (Kas) were determined by fitting the theoretical dependence of fluorescence intensity on the total concentration of the cap analogue to the experimental data points, according to the equation described previously (see Ref. [22] and Fig. S2c).
(§4) The final Kas was calculated as a weighted average of 2–6 independent titrations with the weights taken as the reciprocal of the numerical standard deviation squared. Numerical, nonlinear least-squares regression analysis was performed using Origin 6.0 (Microcal Software Inc.). Obtained association constants were used to determine the Gibbs free energy according to the standard equation ΔG° = − RTlnKas.

X4E1a1 (E101S) = biological target: T1, X4E1a1 (E101S) (Xenopus laevis, UniProt P48597, E101S); experiment: fluorescence titration, XeIF4E1a mutant; assay type: binding; conditions: mutant (E101S) of XeIF4E1a
T1 construct: made in house; host or cells: E. coli Rosetta2(DE3)
From the text: (§5) We tested the effect on cap-binding activity of these positions in the fluorescence assay with six mutated recombinant versions of Xenopus eIF4E1a (Fig. S4). The amino acids were introduced in XeIF4E1a sequentially in the order: E101S/K102R/S195A/M82S/T206L/T207S (numbering of the XeIF4E1a sequence is shifted backward by 4 amino acids relative to XeIF4E1b). […] The biggest contribution to the weaker cap binding of XeIF4E1a, in each case about 20%, resulted from changing Glu101 to Ser and Thr206 to Leu coupled with Thr207 to Ser, with the remaining mutations having only minor effects. […] Glu101 is a solvent-accessible amino acid and is proximal to Trp98 in the S3-S4 loop. […] Attenuation of the cap-binding affinity of XeIF4E1a resulting from mutating Thr206 and Thr207 is consistent with our results mentioned above showing significant influence of C-terminal loop residues on binding phosphate and the second nucleotide.
(§6) For human eIF4E1a and eIF4E1b and also for Xenopus eIF4E1a and its mutated forms, measurements were carried out using 0.1 μM protein in 50 mM Hepes/KOH (pH 7.2), 134.5 mM KCl, 0.5 mM EDTA and 1 mM DTT. For Xenopus eIF4E1b(ΔN27), the concentration was 0.2 μM and glycerol was added to the buffer to 10% (v/v) final concentration. […] The gradually increasing concentration of cap analogue quenches protein fluorescence without shifting the spectrum maximum, while at high concentrations, the fluorescence signal of free cap analogue dominates over the fluorescence from other solution components including free eIF4E and eIF4E in complex with cap (Fig. S2a). Fluorescence of measured samples was excited at 280 nm (2.5 nm bandwidth) and detected at 337 nm or 330 nm (4 nm bandwidth), thus reducing the signal originated from the free cap analogues. Measurements were carried out on a LS-55 spectrofluorometer (Perkin Elmer Co.) using freshly prepared proteins, and the fluorescence intensities were corrected for sample dilution and the inner filter effect.
(§7) Equilibrium association constants (Kas) were determined by fitting the theoretical dependence of fluorescence intensity on the total concentration of the cap analogue to the experimental data points, according to the equation described previously (see Ref. [22] and Fig. S2c). […] Along with Kas and the concentration of the active protein [P0^act], other parameters such as fL and ∆f = fPact − fPL are also gained from the fit, where fL represents the fluorescence efficiency of free cap analogue and ∆f represents the difference between the fluorescence efficiencies of the apo-protein and the complex (Fig. S2c).
as §4

X4E1a2 (E101S/K102R) = biological target: T2, X4E1a2 (E101S/K102R) (Xenopus laevis, UniProt P48597, E101S/K102R); experiment: fluorescence titration, XeIF4E1a mutant; assay type: binding; conditions: mutant (E101S/K102R) of XeIF4E1a
T2 construct: made in house; host or cells: E. coli Rosetta2(DE3)
From the text: as §5, §6, §7, §4

[1] = biological target: T3, X4E1a4 (E101S/K102R/S195A/M82S) (Xenopus laevis, UniProt P48597, E101S/K102R/M82S/S195A); experiment: fluorescence titration, XeIF4E1a mutant; assay type: binding; conditions: mutant (E101S/K102R/S195A/M82S) of XeIF4E1a
T3 construct: made in house; host or cells: E. coli Rosetta2(DE3)
From the text: as §5, §6, §7, §4

[2] = biological target: T4, X4E1a6 (E101S/K102R/S195A/M82S/T206L/T207S) (Xenopus laevis, UniProt P48597, E101S/K102R/M82S/S195A/T206L/T207S); experiment: fluorescence titration, XeIF4E1a mutant; assay type: binding; conditions: for Kas X4E1a6: mutant (E101S/K102R/S195A/M82S/T206L/T207S) of XeIF4E1a
T4 construct: made in house; host or cells: E. coli Rosetta2(DE3)
From the text: as §5, §6, §7, §4

[3] = biological target: T5, X4E1a3 (E101S/K102R/S195A) (Xenopus laevis, UniProt P48597, E101S/K102R/S195A); experiment: fluorescence titration, XeIF4E1a mutant; assay type: binding; conditions: mutant (E101S/K102R/S195A) of XeIF4E1a
T5 construct: made in house; host or cells: E. coli Rosetta2(DE3)
From the text: as §5, §6, §7, §4

X4E1a1’ (K102R) = biological target: T6, X4E1a1’ (K102R) (Xenopus laevis, UniProt P48597, K102R); experiment: fluorescence titration, XeIF4E1a mutant; assay type: binding; conditions: mutant (K102R) of XeIF4E1a
T6 construct: made in house; host or cells: E. coli Rosetta2(DE3)
From the text: as §5, §6, §7, §4

heIF4E1a = biological target: T7, heIF4E1a (Homo sapiens, UniProt P06730); experiment: time-synchronized fluorescence titration of cap analogue binding; conditions: for ΔΔG^o − glycerol heIF4E1a: without glycerol; for Kas − glycerol heIF4E1a: equilibrium association constant, buffer without glycerol
T7 construct: made in house; host or cells: E. coli Rosetta2(DE3)
From the text: as §1, §2, §3, §4

XeIF4E1a [4] = experiment: as above; design: species or system Xenopus laevis; conditions: without glycerol
From the text: as §1, §2, §3, §4

heIF4E1b [5] = experiment: as above; design: species or system human; conditions: without glycerol
From the text: as §1, §2, §3, §4

XeIF4E1a [6] = biological target: T8, XeIF4E1a (Xenopus laevis, UniProt P48597); experiment: as above; conditions: for ΔΔG^o − glycerol XeIF4E1a: without glycerol; for Kas + glycerol XeIF4E1a / Kas − glycerol XeIF4E1a: equilibrium association constant; for Kas + glycerol XeIF4E1a / ΔΔG^o + glycerol XeIF4E1a: 10% glycerol; for Kas − glycerol XeIF4E1a: buffer without glycerol
T8 construct: made in house; host or cells: E. coli Rosetta2(DE3)
From the text: as §1, §2, §3, §4

heIF4E1b [7] = biological target: T9, heIF4E1b (Homo sapiens, UniProt A6NMX2); experiment: as above; conditions: for Kas − glycerol heIF4E1b: equilibrium association constant, buffer without glycerol
T9 construct: made in house; host or cells: E. coli Rosetta2(DE3)
T9 sequence (A6NMX2 1-242): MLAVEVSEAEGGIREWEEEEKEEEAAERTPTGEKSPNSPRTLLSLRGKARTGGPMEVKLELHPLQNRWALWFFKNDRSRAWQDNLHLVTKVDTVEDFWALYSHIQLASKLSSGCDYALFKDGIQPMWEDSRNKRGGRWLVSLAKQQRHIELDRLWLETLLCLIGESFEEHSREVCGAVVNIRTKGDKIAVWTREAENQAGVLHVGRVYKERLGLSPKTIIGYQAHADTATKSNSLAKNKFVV
From the text: as §1, §2, §3, §4

T7 sequence (P06730 whole entry): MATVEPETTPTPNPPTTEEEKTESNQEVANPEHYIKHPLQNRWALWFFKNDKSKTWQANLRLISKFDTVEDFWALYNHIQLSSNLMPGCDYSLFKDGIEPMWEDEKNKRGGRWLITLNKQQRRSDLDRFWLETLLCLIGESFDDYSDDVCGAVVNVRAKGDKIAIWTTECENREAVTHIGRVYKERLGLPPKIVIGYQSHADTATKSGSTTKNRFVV
T5 sequence (P48597 whole entry E101S/K102R/S195A): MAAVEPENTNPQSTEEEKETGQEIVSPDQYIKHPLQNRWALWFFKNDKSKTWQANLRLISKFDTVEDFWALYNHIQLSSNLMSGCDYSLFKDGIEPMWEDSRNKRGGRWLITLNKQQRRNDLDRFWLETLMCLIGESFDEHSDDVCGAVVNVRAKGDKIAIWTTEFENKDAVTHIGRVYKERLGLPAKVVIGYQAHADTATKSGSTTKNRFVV
T2 sequence (P48597 whole entry E101S/K102R): as the sequence (P48597 whole entry E101S/K102R/S195A) above, with A195S counted along it
T3 sequence (P48597 whole entry M82S/E101S/K102R/S195A): as the sequence (P48597 whole entry E101S/K102R/S195A) above, with M82S counted along it
T8 sequence (P48597 whole entry): as the sequence (P48597 whole entry E101S/K102R/S195A) above, with S101E, R102K, A195S counted along it
T4 sequence (P48597 whole entry M82S/E101S/K102R/S195A/T206L/T207S): as the sequence (P48597 whole entry E101S/K102R/S195A) above, with M82S, T206L, T207S counted along it
T1 sequence (P48597 whole entry E101S): as the sequence (P48597 whole entry E101S/K102R/S195A) above, with R102K, A195S counted along it
T6 sequence (P48597 whole entry K102R): as the sequence (P48597 whole entry E101S/K102R/S195A) above, with S101E, A195S counted along it

Ratio Kas (X4E1a) to Kas (X4E1bΔN27) (XeIF4E1bΔN27; 10% glycerol)	Kas + glycerol XeIF4E1bΔN27 (XeIF4E1bΔN27; 10% glycerol) [μM^− 1]	Kas X4E1a1 (X4E1a1 (E101S)) [µM⁻¹]	Kas X4E1a2 (X4E1a2 (E101S/K102R)) [µM⁻¹]	Kas X4E1a4 [1] [µM⁻¹]	Kas X4E1a6 [2] [µM⁻¹]	Kas X4E1a3 [3] [µM⁻¹]	Kas X4E1a1’ (X4E1a1’ (K102R)) [µM⁻¹]	Kas − glycerol heIF4E1a (heIF4E1a) [μM^− 1]	Ratio Kas (h4E1a) to Kas (X4E1a) (XeIF4E1a [4])	Ratio Kas (h4E1a) to Kas (h4E1b) (heIF4E1b [5])	Kas + glycerol XeIF4E1a (XeIF4E1a [6]) [μM^− 1]	Kas − glycerol XeIF4E1a (XeIF4E1a [6]) [μM^− 1]	Kas − glycerol heIF4E1b (heIF4E1b [7]) [μM^− 1]	SMILES	further results
1.38	4.36 ± 0.18	9.01 ± 0.21	8.86 ± 0.16	11.66 ± 0.64	7.09 ± 0.18	9.08 ± 0.33	11.22 ± 0.65	16.79 ± 0.56	1.58	0.47	6.04 ± 0.92	10.62 ± 0.98	35.4 ± 1.6	Nc1nc2c(c(=O)[nH]1)n(Cc1ccccc1)c[n+]2[C@@H]1O[C@H](COP(=O)(O)OP(=O)(O)O)[C@@H](O)[C@H]1O [bn^7GDP]	fold increase of association constant compared with m^7GDP (XeIF4E1bΔN27; benzyl substitution): ~2 fold; Kas + glycerol X4E1a6 ([2]; 10% glycerol, Fig. 5d): 3.57 ± 0.24 µM⁻¹; ΔΔG^o − glycerol heIF4E1a (heIF4E1a; change relative to m^7GDP): 0.033 ± 0.022 kcal/mol; ΔΔG^o − glycerol XeIF4E1a (XeIF4E1a [6]; change relative to m^7GDP): 0.042 ± 0.059 kcal/mol; fold increase of association constant compared with m^7GDP (heIF4E1b [7]; benzyl substitution): approximately 5 fold
								4.77 ± 0.13		1.34	2.189 ± 0.026		3.568 ± 0.071	CO[C@@H]1[C@H](O)[C@@H](COP(=O)(O)OP(=O)(O)OP(=O)(O)OC[C@H]2O[C@@H](n3c[n+](C)c4c(=O)[nH]c(N)nc43)[C@H](O)[C@@H]2O)O[C@H]1n1cnc2c(=O)[nH]c(N)nc21 [m^7Gpppm^2′-OG]	ΔΔG^o − glycerol heIF4E1a (heIF4E1a; change relative to m^7Gp3G): 0.128 ± 0.041 kcal/mol; ΔΔG^o + glycerol XeIF4E1a (XeIF4E1a [6]; change relative to m^7Gp3G): 0.026 ± 0.018 kcal/mol
3.50	65.6 ± 4.2	279 ± 34	280 ± 11		190 ± 6		382 ± 16	547 ± 31	1.44	3.73	230 ± 31	378 ± 44	146.6 ± 9.9	Cn1c[n+]([C@@H]2O[C@H](COP(=O)(O)OP(=O)(O)OP(=O)(O)OP(=O)(O)OP(=O)(O)O)[C@@H](O)[C@H]2O)c2nc(N)[nH]c(=O)c21 [m^7Gp5]	
0.70	0.253 ± 0.046	0.350 ± 0.015	0.306 ± 0.046	0.317 ± 0.054	0.185 ± 0.012	0.193 ± 0.019	0.268 ± 0.012	0.362 ± 0.008	1.22	1.33	0.176 ± 0.011	0.295 ± 0.021	0.272 ± 0.009	CN(C)c1nc2c(c(=O)[nH]1)[n+](C)cn2[C@@H]1O[C@H](COP(=O)(O)OP(=O)(O)OP(=O)(O)O)[C@@H](O)[C@H]1O [m^2,2,7GTP]	ΔΔG^o + glycerol XeIF4E1bΔN27 (XeIF4E1bΔN27; change relative to m^7GTP, 10% glycerol): 2.00 ± 0.11 kcal/mol; ΔΔG^o − glycerol heIF4E1a (heIF4E1a; change relative to m^7GTP): 3.052 ± 0.045 kcal/mol; ΔΔG^o + glycerol XeIF4E1a (XeIF4E1a [6]; change relative to m^7GTP): 2.844 ± 0.042 kcal/mol; ΔΔG^o − glycerol XeIF4E1a (XeIF4E1a [6]; change relative to m^7GTP): 2.897 ± 0.051 kcal/mol; ΔΔG^o − glycerol heIF4E1b (heIF4E1b [7]; change relative to m^7GTP, without glycerol): 2.557 ± 0.041 kcal/mol
	7.80 ± 0.41	33.58 ± 0.66	32.76 ± 0.51	26.7 ± 2.2	19.8 ± 0.4	28.1 ± 1.5	34.3 ± 1.7				23.34 ± 0.88	42.8 ± 2.0	22.0 ± 1.4	Cn1c[n+]([C@@H]2O[C@H](COP(=O)([O-])OP(=O)(O)OP(=O)(O)O)[C@@H](O)[C@H]2O)c2nc(N)[nH]c(=O)c21 [m^7GTP]	decrease of association constant compared to wild-type XeIF4E1a ([2]; all six residues replaced): 50%
